Experimental data taken from ChEMBL document CHEMBL6177931, “Exploring diverse frontiers: Advancements of bioactive 4-aminoquinoline-based molecular hybrids in targeted therapeutics and beyond” (Eur J Med Chem, 2024).
In brackets after ≈: the same amount, converted by molar mass.

Legend:
[1] = Cytotoxicity against human A375P cells assessed as cell viability incubated for 72 hrs by alamar blue reagent based assay; type: functional
HL-60 = assay: Cytotoxicity against human HL-60 cells assessed as reduction in cell viability incubated for 24 hrs by MTT assay; type: functional, cell-based; conditions: HL-60, 24 h
Jurkat E6.1 = assay: Cytotoxicity against human Jurkat E6.1 cells assessed as reduction in cell viability incubated for 24 hrs by MTT assay; type: functional, cell-based; conditions: Jurkat E6.1, 24 h
Cholinesterase [2] = target: T1, Cholinesterase (Homo sapiens, UniProt P06276); assay: Inhibition of human BChE
T1 sequence (P06276 whole entry): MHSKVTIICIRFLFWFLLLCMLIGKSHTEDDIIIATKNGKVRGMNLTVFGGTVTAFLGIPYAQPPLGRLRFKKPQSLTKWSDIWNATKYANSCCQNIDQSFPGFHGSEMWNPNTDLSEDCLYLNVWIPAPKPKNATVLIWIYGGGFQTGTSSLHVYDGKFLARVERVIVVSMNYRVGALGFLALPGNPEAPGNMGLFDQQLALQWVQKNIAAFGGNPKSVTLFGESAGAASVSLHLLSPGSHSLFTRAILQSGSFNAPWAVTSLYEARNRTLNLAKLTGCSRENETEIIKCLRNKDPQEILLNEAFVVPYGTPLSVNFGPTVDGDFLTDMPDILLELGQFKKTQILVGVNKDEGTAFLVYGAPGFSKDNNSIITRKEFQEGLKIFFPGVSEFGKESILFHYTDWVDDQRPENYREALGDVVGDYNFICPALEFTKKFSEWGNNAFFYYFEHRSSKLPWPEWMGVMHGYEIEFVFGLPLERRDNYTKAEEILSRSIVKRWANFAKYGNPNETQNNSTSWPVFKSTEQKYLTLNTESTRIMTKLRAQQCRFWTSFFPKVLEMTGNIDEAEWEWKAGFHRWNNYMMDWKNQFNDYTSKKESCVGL

Acetylcholinesterase [3] = target: T2, Acetylcholinesterase (Homo sapiens, UniProt P22303); assay: Inhibition of human erythrocyte AChE using acetylthiocholine as substrate preincubated for 5 mins followed by substrate addition by Ellman's reagent based spectrophotometric analysis
T2 sequence (P22303 whole entry): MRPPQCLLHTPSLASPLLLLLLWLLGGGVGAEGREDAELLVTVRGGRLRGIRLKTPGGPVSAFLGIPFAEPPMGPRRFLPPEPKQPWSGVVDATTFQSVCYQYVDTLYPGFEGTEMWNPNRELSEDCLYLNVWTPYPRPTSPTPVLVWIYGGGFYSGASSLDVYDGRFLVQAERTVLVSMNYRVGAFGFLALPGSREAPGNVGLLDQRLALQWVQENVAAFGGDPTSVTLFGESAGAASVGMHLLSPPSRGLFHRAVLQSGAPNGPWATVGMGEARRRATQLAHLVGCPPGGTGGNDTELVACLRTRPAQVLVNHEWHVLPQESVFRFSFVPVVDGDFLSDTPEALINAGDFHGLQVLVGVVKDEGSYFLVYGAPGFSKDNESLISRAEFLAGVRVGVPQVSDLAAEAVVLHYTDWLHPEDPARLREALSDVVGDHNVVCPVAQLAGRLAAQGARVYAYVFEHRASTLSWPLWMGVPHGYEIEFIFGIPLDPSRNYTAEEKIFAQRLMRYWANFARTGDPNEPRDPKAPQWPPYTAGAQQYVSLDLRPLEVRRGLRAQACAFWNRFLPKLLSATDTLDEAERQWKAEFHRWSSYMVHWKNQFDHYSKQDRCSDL

Proteus vulgaris = assay: Antibacterial activity against Proteus vulgaris ATCC6380; type: functional
[4] = test system: Mycolicibacterium smegmatis; assay: Antibacterial activity against Mycobacterium smegmatis; type: functional
Pseudomonas aeruginosa = assay: Antibacterial activity against Pseudomonas aeruginosa; type: functional
Staphylococcus aureus = assay: Antibacterial activity against Staphylococcus aureus; type: functional
Escherichia coli = assay: Antibacterial activity against Escherichia coli ATCC25922; type: functional
Enterococcus faecalis = assay: Antibacterial activity against Enterococcus faecalis ATCC13047; type: functional
Bacillus subtilis = assay: Antibacterial activity against Bacillus subtilis ATCC19659; type: functional
[5] = test system: Staphylococcus epidermidis; assay: Antibacterial activity against Staphylococcus epidermidis; type: functional
Pseudomonas mevalonii = assay: Antibacterial activity against Pseudomonas mevalonii; type: functional; conditions: Pseudomonas sp. 'mevalonii'
Klebsiella oxytoca = assay: Antibacterial activity against Klebsiella oxytoca ATCC8724; type: functional
Acetylcholinesterase [6] = target: T3, Acetylcholinesterase (Electrophorus electricus, UniProt O42275); assay: Inhibition of electric eel AChE using […] as substrate preincubated for 10 mins followed by substrate addition and measured after 5 mins by Ellman's reagent based spectrophotometric analysis
T3 sequence (O42275 whole entry): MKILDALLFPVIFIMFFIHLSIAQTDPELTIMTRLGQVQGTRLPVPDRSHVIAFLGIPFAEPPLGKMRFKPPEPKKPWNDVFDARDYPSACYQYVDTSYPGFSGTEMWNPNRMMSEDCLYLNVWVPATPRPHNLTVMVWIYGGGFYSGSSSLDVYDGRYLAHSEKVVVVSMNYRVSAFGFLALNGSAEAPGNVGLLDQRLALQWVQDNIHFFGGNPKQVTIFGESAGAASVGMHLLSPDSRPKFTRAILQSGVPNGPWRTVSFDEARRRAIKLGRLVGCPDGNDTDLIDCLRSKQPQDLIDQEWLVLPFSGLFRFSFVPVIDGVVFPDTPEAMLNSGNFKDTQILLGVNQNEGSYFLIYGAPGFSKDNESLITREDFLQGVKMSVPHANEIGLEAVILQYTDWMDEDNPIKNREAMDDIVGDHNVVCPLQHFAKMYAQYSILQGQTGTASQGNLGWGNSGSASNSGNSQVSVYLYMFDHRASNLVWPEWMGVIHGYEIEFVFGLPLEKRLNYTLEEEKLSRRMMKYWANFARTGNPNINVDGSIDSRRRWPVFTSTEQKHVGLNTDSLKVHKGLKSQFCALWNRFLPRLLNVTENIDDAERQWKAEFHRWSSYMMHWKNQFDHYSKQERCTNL

Cholinesterase [7] = target: T4, Cholinesterase (Equus caballus, UniProt P81908); assay: Inhibition of equine serum BChE using […] as substrate preincubated for 10 mins followed by substrate addition and measured after 5 mins by Ellman's reagent based spectrophotometric analysis
T4 sequence (P81908 whole entry): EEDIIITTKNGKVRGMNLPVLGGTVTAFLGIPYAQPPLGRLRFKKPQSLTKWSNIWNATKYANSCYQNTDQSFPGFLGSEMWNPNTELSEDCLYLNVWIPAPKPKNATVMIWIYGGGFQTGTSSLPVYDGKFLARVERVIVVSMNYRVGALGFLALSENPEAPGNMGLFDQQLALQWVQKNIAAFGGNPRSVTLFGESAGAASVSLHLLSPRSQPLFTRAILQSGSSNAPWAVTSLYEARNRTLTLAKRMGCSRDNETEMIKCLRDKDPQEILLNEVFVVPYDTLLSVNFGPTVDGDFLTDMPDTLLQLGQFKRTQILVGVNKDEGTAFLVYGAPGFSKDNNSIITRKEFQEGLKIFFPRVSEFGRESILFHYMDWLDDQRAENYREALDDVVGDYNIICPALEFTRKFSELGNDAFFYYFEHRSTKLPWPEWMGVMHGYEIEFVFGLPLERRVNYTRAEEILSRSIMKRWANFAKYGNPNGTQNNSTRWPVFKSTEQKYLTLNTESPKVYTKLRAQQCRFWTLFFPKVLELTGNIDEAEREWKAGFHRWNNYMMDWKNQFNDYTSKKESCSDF

[8] = test system: Mycobacterium tuberculosis; assay: Antitubercular activity against Mycobacterium tuberculosis H37Rv by microplate alamar blue assay; type: functional
[9] = Selectivity index, ratio of IC50 for cytotoxicity against African green monkey Vero cells to IC50 for antiplasmodial activity against D-sorbitol synchronized chloroquine-resistant Plasmodium falciparum W2; type: toxicity, cell-based; conditions: read-out: Ratio IC50
Acetylcholinesterase [10] = target: T2, Acetylcholinesterase; assay: Inhibition of recombinant human AchE by Ellman's reagent based spectrophotometric analysis
Cholinesterase [11] = target: T1, Cholinesterase; assay: Inhibition of human BchE by Ellman's reagent based spectrophotometric analysis
Acetylcholinesterase [12] = target: T3, Acetylcholinesterase; assay: Inhibition of electric eel AChE using […] as substrate measured within 2 mins
Cholinesterase [13] = target: T4, Cholinesterase; assay: Inhibition of equine serum BChE using […] as substrate measured within 2 mins
[14] = test system: Mycobacterium tuberculosis; assay: Antitubercular activity against Mycobacterium tuberculosis H37Rv; type: functional
[15] = test system: Mycobacterium tuberculosis; assay: Antitubercular activity against Mycobacterium tuberculosis H37Rv assessed as inhibition of bacterial growth at 250 microg/ml relative to control; type: functional
Acetylcholinesterase [16] = target: T3, Acetylcholinesterase; assay: Inhibition of electric eel AChE using […] as substrate measured after 2 mins by Ellman's reagent based spectrophotometric analysis
Cholinesterase [17] = target: T4, Cholinesterase; assay: Inhibition of equine serum BChE using […] as substrate measured after 2 mins by Ellman's reagent based spectrophotometric analysis
SMMC-7721 = assay: Antiproliferative activity against human SMMC-7721 cells assessed as reduction in cell proliferation incubated for 24 hrs by MTT assay; type: functional, cell-based; conditions: SMMC-7721, 24 h
HepG2 = assay: Antiproliferative activity against human HepG2 cells assessed as reduction in cell proliferation incubated for 24 hrs by MTT assay; type: functional, cell-based; conditions: HepG2, 24 h
[18] = Inhibition of ConA-induced TNF-alpha secretion in female BALB/c mouse splenocyte incubated for 48 hrs by ELISA; type: functional, cell-based
[19] = Inhibition of ConA-induced IL-1beta secretion in female BALB/c mouse splenocyte incubated for 48 hrs by ELISA; type: functional, cell-based
[20] = Inhibition of ConA-induced IL-6 secretion in female BALB/c mouse splenocyte incubated for 48 hrs by ELISA; type: functional, cell-based
[21] = Cytotoxicity against human Huh-7 cells assessed as reduction in cell viability incubated for 2 days by MTT assay; type: toxicity, cell-based; conditions: time 2 day
Aspergillus niger = assay: Antifungal activity Aspergillus niger MTCC 282 by agar streak dilution method; type: organism-based
Candida albicans = assay: Antifungal activity against Candida albicans MTCC 183 by agar streak dilution method; type: functional
[22] = Cytotoxicity against MDCK cells assessed as cell growth inhibition incubated for 72 hrs by MTT assay; type: toxicity, cell-based, Canis lupus familiaris; conditions: dog
[23] = Antiproliferative activity against human Caco-2 cells assessed as cell growth inhibition incubated for 72 hrs by MTT assay; type: toxicity, cell-based

## CN(CCCCN(C)CCCNc1ccnc2cc(Cl)ccc12)CCCNc1ccnc2cc(Cl)ccc12
[1]
  IC50: 269 nM

## COc1ccc(C2CC(c3cccc(Nc4ccnc5cc(Cl)ccc45)c3)=NN2)cc1OC (stereo unspecified)
HL-60
  IC50: 940 nM
Jurkat E6.1
  IC50: 3170 nM

## Cc1ccc(S(=O)(=O)NCCCCCNc2c3c(nc4ccccc24)CCCC3)cc1
Cholinesterase [2]
  IC50: 68 nM
Acetylcholinesterase [3]
  IC50: 62 nM

## CC1(C)CC[C@]2(C(=O)OCCOCCNc3ccnc4ccc(Cl)cc34)CC[C@]3(C)C(=CC[C@@H]4[C@@]5(C)CC[C@H](O)C(C)(C)[C@@H]5CC[C@]43C)[C@@H]2C1
Proteus vulgaris
  MIC: 2500 µg/mL (≈ 3540 µM)
[4]
  MIC: 1250 µg/mL (≈ 1770 µM)
Pseudomonas aeruginosa
  MIC: 2500 µg/mL (≈ 3540 µM)
Staphylococcus aureus
  MIC: 2500 µg/mL (≈ 3540 µM)
Escherichia coli
  MIC: 1250 µg/mL (≈ 1770 µM)
Enterococcus faecalis
  MIC: 1250 µg/mL (≈ 1770 µM)
Bacillus subtilis
  MIC: 2500 µg/mL (≈ 3540 µM)
[5]
  MIC: 2500 µg/mL (≈ 3540 µM)
Pseudomonas mevalonii
  MIC: 1250 µg/mL (≈ 1770 µM)
Klebsiella oxytoca
  MIC: 2500 µg/mL (≈ 3540 µM)

## Oc1ccccc1/C=N/CCCCCCNc1ccnc2cc(Cl)ccc12
Acetylcholinesterase [6]
  IC50: 730 nM
Cholinesterase [7]
  IC50: 58400 nM

## Clc1ccc2c(NCCCN(CCCCN(CCCNc3ccnc4cc(Cl)ccc34)Cc3ccccc3)Cc3ccccc3)ccnc2c1
[1]
  IC50: 269 nM

## COc1ccc(/C=C/C(=N/NC(N)=O)c2ccc(Nc3ccnc4cc(Cl)ccc34)cc2)cc1OC
[8]
  MIC: 1.56 µM (≈ 0.783 µg/mL)

## O=C1c2ccc(N3CCN(CCO)CC3)cc2C(=O)N1CCCNc1ccnc2cc(Cl)ccc12
[9]
  selectivity ratio: > 4200

## Clc1ccc(C2CC(c3ccc(Nc4ccnc5cc(Cl)ccc45)cc3)=NN2)cc1 (stereo unspecified)
HL-60
  IC50: 6170 nM
Jurkat E6.1
  IC50: 6310 nM

## Clc1ccc2c(NCCCCCCCCNC34CC5CC(CC(C5)C3)C4)ccnc2c1
Acetylcholinesterase [10]
  Ki: 75 nM
Cholinesterase [11]
  Ki: 91 nM

## Clc1ccc2c(NCCNC34CC5CC(CC(C5)C3)C4)ccnc2c1
Acetylcholinesterase [10]
  Ki: 1600 nM
Cholinesterase [11]
  Ki: 920 nM

## Nc1c2c(nc3c1C(c1ccc(F)cc1)C1=C(O3)C(=O)c3ccccc3C1=O)CCCC2 (stereo unspecified)
Acetylcholinesterase [12]
  IC50: 890 nM
Cholinesterase [13]
  IC50: 13800 nM

## Cc1cc(C(=O)NNc2ccnc3cc(Cl)ccc23)c2ccccc2n1
[14]
  MIC: 42 µM (≈ 15.2 µg/mL)
[15]
  inhibition at 250 µg/mL: 98%

## COc1cc(/C=C/C(=O)NCCNc2cc(C)nc3ccccc23)ccc1OCc1ccc(Br)cc1
Acetylcholinesterase [16]
  IC50: 620 nM
Cholinesterase [17]
  IC50: 1180 nM

## COc1ccc(/C=N/NC(=O)c2ccc(Nc3ccnc4ccccc34)cc2)cc1OC
SMMC-7721
  IC50: 9600 nM
HepG2
  IC50: 12600 nM

## CCN(CCCC(C)Nc1ccnc2cc(Cl)ccc12)CCNC(=O)C(F)(F)C1CCN(CCOCCOC)CC1 (stereo unspecified)
[18]
  IC50: 24400 nM
[19]
  IC50: 1810 nM
[20]
  IC50: 2520 nM
[21]
  CC50 at 48 h: 5750 nM

## CCCOc1ccc(/C=N/Nc2cc(C)nc3ccc(Cl)cc23)cc1
Aspergillus niger
  MIC: 25 µg/mL (≈ 70.7 µM)
Candida albicans
  MIC: 12.5 µg/mL (≈ 35.3 µM)

## CCCCCOc1ccc(/C=N/Nc2cc(C)nc3ccc(Cl)cc23)cc1
Aspergillus niger
  MIC: 12.5 µg/mL (≈ 32.7 µM)
Candida albicans
  MIC: 25 µg/mL (≈ 65.5 µM)

## CO[C@H]1/C=C/O[C@@]2(C)Oc3c(C)c(O)c4c(O)c(c(/C=N/N5CCN(C)CC5)c(O)c4c3C2=O)NC(=O)/C(C)=C\C=C\[C@H](C)[C@H](O)[C@@H](C)[C@@H](O)[C@@H](C)[C@H](OC(C)=O)[C@@H]1C [RIFAMPIN]
[15]
  inhibition at 250 µg/mL: 98%

## Clc1ccc2c(Nc3cccc(-c4nc5ccccc5[nH]4)c3)ccnc2c1
[22]
  IC50 at 72 h: 20400 nM
[23]
  GI50 at 72 h: 1000 nM

## CC(C)(C)c1ccc(/C=N/CCNc2c3c(nc4ccccc24)CCCCC3)c(C(C)(C)C)c1O
Cholinesterase [2]
  IC50: 419 nM
Acetylcholinesterase [3]
  IC50: 4030 nM

## CCN(CCCC(C)Nc1ccnc2cc(Cl)ccc12)CCNC(=O)C(F)(F)C1CCN(C(=O)C2OC(OC)C3OC(C)(C)OC23)CC1 (stereo unspecified)
[18]
  IC50: 4410 nM
[19]
  IC50: 1190 nM
[20]
  IC50: 1870 nM
[21]
  CC50 at 48 h: 16900 nM
